Test results: PubChem BioAssay AID1159557 (GlaxoSmithKline (GSK), 2015)
The source made the active and inactive calls. How the calls were made is not given here.

System: Trypanosoma brucei growth inhibition
Test: T. brucei growth inhibition (AID 1159557);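 further: parasites exposed to compound for 48 h before the resazurin readout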

| Structure (SMILES) | IC50 |
| --- | --- |
| Cc1cc(NC(=O)c2ccc([N+](=O)[O-])s2)ccc1Br | 0.32 µM |
| COc1cccc(C(=O)[C@H]2C[C@@H]2CN(Cc2ccccn2)Cc2ccccn2)c1 | 16 µM |
| O=C(NCCc1csc(-c2ccc(F)cc2)n1)c1ccco1 | 0.4 µM |
| CC(C)c1sc(Cl)nc1C(=O)NCCc1nc(C(=O)Nc2ccc3c(c2)OCO3)cs1 | 25 µM |
| O=C(CN1CCN(c2ccccn2)CC1)Nc1cc(S(=O)(=O)N2CCCCCC2)ccc1Cl | 13 µM |
| CCCc1cc(N)nc(-c2cc(CCC)cc(N)n2)c1 | 3.2 µM |
| Cc1ccc(Nc2nc(C3CCCN3Cc3ccn[nH]3)cs2)nc1 (configuration not stated) | 0.79 µM |
| Cc1cc(=O)n2nc(Oc3ccc(C#N)cc3Cl)sc2n1 | 0.63 µM |
| O=C(CN1CCC2(O)CCCCC2C1c1ccc2c(c1)OCO2)Nc1ccc(Cl)cc1Cl (configuration not stated) | 13 µM |
| O=C(CC1(O)C(=O)N(Cc2cccs2)c2ccc(Br)cc21)c1cccnc1 (configuration not stated) | 0.63 µM |
| CS(=O)(=O)c1ccc(Nc2nccc(-c3cnn4ncccc34)n2)cc1 | 0.16 µM |
| COc1ccc(OC)c(S(=O)(=O)N(Cc2c(F)cccc2F)[C@@H]2CCN(C#N)C2)c1 | 0.63 µM |
| Cn1c(CN2CCN(c3ncc(C(F)(F)F)cc3Cl)CC2)nc2ccncc21 | 6.3 µM |
| O=c1ccc2ccc(F)c3c2n1C[C@H]3CN1CCC(NCc2cc3ccccc3o2)CC1 | 0.63 µM |
| Cc1ccc(-c2csc(NC(=O)C=Cc3ccc(S(=O)(=O)N4CCOCC4)cc3)n2)o1 | 3.2 µM |
| Cc1nc(C(=O)Nc2ccc3c(c2)OCO3)nn1-c1ccc(F)cc1 | > 40 µM (inactive) |
| COc1ccc([N+](=O)[O-])cc1NC(=O)c1cc(Cl)ccc1O | 25 µM |
| CCc1cccc(-n2nc(OCC(=O)NC3CCCC3)c3cccnc32)c1 | > 40 µM (inactive) |
| Cc1ccccc1NS(=O)(=O)c1ccc2[nH]cc(C(=O)NC3CCCCC3)c(=O)c2c1 | 0.25 µM |

| Structure (SMILES) | IC50 |
| --- | --- |
| Cn1ccnc1CN1CCc2[nH]cnc2C1c1ccccc1OCc1ccccc1 (configuration not stated) | 0.4 µM |
| CC(C)(C)CC(=O)NCc1noc(COc2ccccc2)n1 | 0.63 µM |
| O=C(c1ccccc1)N1CCC(C(=O)N2CCC(Oc3ccccc3Cl)CC2)CC1 | 0.5 µM |
| O=C(NCc1ccc(Cl)cc1)C1CN(C(=O)c2ccc(F)cc2)CCS1 (configuration not stated) | 0.79 µM |
| COc1ccc(S(=O)(=O)Nc2ccccc2OC)cc1NC(=O)CCCc1c[nH]c2ccccc12 | 13 µM |
| Cc1cc(C)n(-c2nc(NC(C)C)nc(NC(C)(C)C)n2)n1 | 20 µM |
| COc1ccc2ncc(=O)n(CCN3CCC(NCc4ccc(-c5cccs5)cc4)CC3)c2n1 | 3.2 µM |
| O=C(Cn1cnc([N+](=O)[O-])n1)Nc1ccc(Cl)cc1C(=O)c1ccccc1 | 20 µM |
| CC(C)N(C(=O)CN1C(=O)C(N)C(=O)N(c2ccccc2)c2ccccc21)c1ccccc1 (configuration not stated) | > 40 µM (inactive) |
| CS(=O)(=O)c1ccc(CC(=O)Nc2nc(-c3ccc(Cl)s3)cs2)cc1 | 10 µM |
| CC(C)n1c(-c2nonc2N)nc2cccc(OCCN3CCCC3)c21 | 0.79 µM |
| CN(CCOc1ccc(Cl)cc1)Cc1nc(N)nc(N(C)C)n1 | 25 µM |
| CCCCn1nnnc1CSc1nc(C)cc(C)c1C#N | > 40 µM (inactive) |
| Cc1cccc(N2CCCN(Cc3c[nH]c4ccccc34)CC2)n1 | 13 µM |
| O=C(NCCc1csc(-c2ccc(F)cc2)n1)c1cccs1 | 0.25 µM |
| Cc1ccccc1CNC(=O)CN(Cc1ccccn1)Cc1ccccn1 | 6.3 µM |
| CN1CCN(c2nc(-c3ccc(Cl)cc3)c3c(N)n(C)nc3n2)CC1 | 13 µM |
| COc1ccc2nccc([C@H](O)CN3CC[C@H](NC(=O)c4ccc(Br)cc4)[C@@H](O)C3)c2n1 | 0.2 µM |
